Values after ≈ are worked out from the molar mass of the structure shown.
Tests used:
[1] = system: Phaseolus lunatus; experiment: Phytotoxicity in Phaseolus lunatus (lima bean) root assessed as root dry weight at 2.24 kg ai/ha applied to soil measured up to 7 days under green house conditions (reference value: 0.36 +/- 0.071 g); assay type: organism-based; conditions: in vivo, other, 168 h
[2] = system: Phaseolus lunatus; experiment: Phytotoxicity in Phaseolus lunatus (lima bean) root assessed as root dry weight at 1.12 kg ai/ha applied to soil measured up to 7 days under green house conditions (reference value: 0.36 +/- 0.071 g); assay type: organism-based; conditions: in vivo, other, 168 h
[3] = system: Phaseolus lunatus; experiment: Phytotoxicity in Phaseolus lunatus (lima bean) plant assessed as plant dry weight at 2.24 kg ai/ha applied to soil measured up to 7 days under green house conditions (reference value: 1.20 +/- 0.21 g); assay type: organism-based; conditions: in vivo, other, 168 h
[4] = system: Meloidogyne incognita; experiment: Nematicidal activity against second juvenile stage of Meloidogyne incognita (root-knot nematode) infected lima bean plant assessed as reduction in root gall index at 1.12 kg ai/ha applied to soil measured during planting under green house conditions (reference value: 7 +/- 0.27%); assay type: functional
[5] = system: Meloidogyne incognita; experiment: Nematicidal activity against second juvenile stage of Meloidogyne incognita (root-knot nematode) infected lima bean plant assessed as reduction in root gall index at 0.56 kg ai/ha applied to soil measured during planting under green house conditions (reference value: 7 +/- 0.27%); assay type: functional
[6] = system: Meloidogyne incognita; experiment: Nematicidal activity against second juvenile stage of Meloidogyne incognita (root-knot nematode) infected lima bean plant assessed as shoot dry weight at 1.12 kg ai/ha applied to soil measured during planting under green house conditions (reference value: 1.84 +/- 0.18 g); assay type: functional
[7] = system: Meloidogyne incognita; experiment: Nematicidal activity against second juvenile stage of Meloidogyne incognita (root-knot nematode) infected lima bean plant assessed as shoot dry weight at 0.56 kg ai/ha applied to soil measured during planting under green house conditions (reference value: 1.84 +/- 0.18 g); assay type: functional
[8] = system: Meloidogyne incognita; experiment: Nematicidal activity against second juvenile stage of Meloidogyne incognita (root-knot nematode) infected pea plant assessed as plant fresh weight at 1.68 kg ai/ha applied to soil measured up to 7 days post planting under green house conditions (reference value: 4.3 +/- 0.56 g); assay type: functional
[9] = system: Meloidogyne incognita; experiment: Nematicidal activity against second juvenile stage of Meloidogyne incognita (root-knot nematode) infected pea plant assessed as plant fresh weight at 1.12 kg ai/ha applied to soil measured up to 7 days post planting under green house conditions (reference value: 4.3 +/- 0.56 g); assay type: functional
[10] = system: Meloidogyne incognita; experiment: Nematicidal activity against second juvenile stage of Meloidogyne incognita (root-knot nematode) infected pea plant assessed as plant fresh weight at 0.56 kg ai/ha applied to soil under green house conditions (reference value: 4.3 +/- 0.56 g); assay type: functional
[11] = system: Meloidogyne incognita; experiment: Nematicidal activity against second juvenile stage of Meloidogyne incognita (root-knot nematode) infected pea plant assessed as reduction in root gall index at 1.68 kg ai/ha applied to soil measured up to 14 days post planting under green house conditions (reference value: 9.7 +/- 0.30%); assay type: functional
[12] = system: Meloidogyne incognita; experiment: Nematicidal activity against second juvenile stage of Meloidogyne incognita (root-knot nematode) infected pea plant assessed as reduction in root gall index at 1.12 kg ai/ha applied to soil measured up to 7 days post planting under green house conditions (reference value: 9.7 +/- 0.30%); assay type: functional
[13] = system: Meloidogyne incognita; experiment: Nematicidal activity against second juvenile stage of Meloidogyne incognita (root-knot nematode) infected pea plant assessed as reduction in root gall index at 0.56 kg ai/ha applied to soil under green house conditions (reference value: 9.7 +/- 0.30%); assay type: functional
[14] = system: Meloidogyne incognita; experiment: Nematicidal activity against second juvenile stage of Meloidogyne incognita (root-knot nematode) infected pea plant assessed as root dry weight at 1.12 kg ai/ha applied to soil measured up to 7 days post planting under green house conditions (reference value: 0.25 +/- 0.041 g); assay type: functional
[15] = system: Meloidogyne incognita; experiment: Nematicidal activity against second juvenile stage of Meloidogyne incognita (root-knot nematode) infected pea plant assessed as root dry weight at 0.56 kg ai/ha applied to soil under green house conditions (reference value: 0.25 +/- 0.041 g); assay type: functional
[16] = system: Meloidogyne incognita; experiment: Nematicidal activity against second juvenile stage of Meloidogyne incognita (root-knot nematode) infected pea plant assessed as root fresh weight at 1.68 kg ai/ha applied to soil measured up to 14 days post planting under green house conditions (reference value: 1.83 +/- 0.3 g); assay type: functional
[17] = system: Meloidogyne incognita; experiment: Nematicidal activity against second juvenile stage of Meloidogyne incognita (root-knot nematode) infected pea plant assessed as root fresh weight at 1.12 kg ai/ha applied to soil measured up to 7 days post planting under green house conditions (reference value: 1.83 +/- 0.3 g); assay type: functional
[18] = system: Meloidogyne incognita; experiment: Nematicidal activity against second juvenile stage of Meloidogyne incognita (root-knot nematode) infected pea plant assessed as emergence at 0.56 kg ai/ha applied to soil under green house conditions (reference value: 75 +/- 13%); assay type: functional
[19] = system: Meloidogyne incognita; experiment: Nematicidal activity against second juvenile stage of Meloidogyne incognita (root-knot nematode) infested soil containing cucumber seeds assessed as mortality applied post seed germination measured after 7 days under green house conditions; assay type: functional
[20] = system: Meloidogyne incognita; experiment: Nematicidal activity against second juvenile stage of Meloidogyne incognita (root-knot nematode) assessed as mortality after 72 hr; assay type: functional
[21] = system: Meloidogyne incognita; experiment: Nematicidal activity against second juvenile stage of Meloidogyne incognita (root-knot nematode) assessed as mortality after 48 hr; assay type: functional
[22] = system: Meloidogyne incognita; experiment: Nematicidal activity against second juvenile stage of Meloidogyne incognita (root-knot nematode) infected pea plant assessed as emergence at 1.68 kg ai/ha applied to soil measured up to 14 days under green house conditions (reference value: 75 +/- 13%); assay type: functional
[23] = system: Meloidogyne incognita; experiment: Nematicidal activity against second juvenile stage of Meloidogyne incognita (root-knot nematode) infected pea plant assessed as emergence at 1.12 kg ai/ha applied to soil measured up to 7 days under green house conditions (reference value: 75 +/- 13%); assay type: functional
[24] = system: Meloidogyne incognita; experiment: Nematicidal activity against second juvenile stage of Meloidogyne incognita (root-knot nematode) infected pea plant assessed as root fresh weight at 0.56 kg ai/ha applied to soil under green house conditions (reference value: 1.83 +/- 0.3 g); assay type: functional
[25] = system: Phaseolus lunatus; experiment: Phytotoxicity in Phaseolus lunatus (lima bean) plant assessed as plant dry weight at 1.12 kg ai/ha applied to soil measured up to 7 days under green house conditions (reference value: 1.20 +/- 0.21 g); assay type: organism-based; conditions: in vivo, other, 168 h
[26] = system: Phaseolus lunatus; experiment: Phytotoxicity in Phaseolus lunatus (lima bean) plant assessed as emergence at 2.24 kg ai/ha applied to soil measured up to 7 days under green house conditions (reference value: 70 +/- 16%); assay type: organism-based; conditions: in vivo, other, 168 h
[27] = system: Phaseolus lunatus; experiment: Phytotoxicity in Phaseolus lunatus (lima bean) plant assessed as emergence at 1.12 kg ai/ha applied to soil measured up to 7 days under green house conditions (reference value: 70 +/- 16%); assay type: organism-based; conditions: in vivo, other, 168 h
[28] = system: Meloidogyne incognita; experiment: Nematicidal activity against second juvenile stage of Meloidogyne incognita (root-knot nematode) infected lima bean plant assessed as root dry weight at 1.12 kg ai/ha applied to soil measured during planting under green house conditions (reference value: 0.5 +/- 0.052 g); assay type: functional
[29] = system: Meloidogyne incognita; experiment: Nematicidal activity against second juvenile stage of Meloidogyne incognita (root-knot nematode) infected lima bean plant assessed as root dry weight at 0.56 kg ai/ha applied to soil measured during planting under green house conditions (reference value: 0.5 +/- 0.052 g); assay type: functional
[30] = system: Meloidogyne incognita; experiment: Nematicidal activity against second juvenile stage of Meloidogyne incognita (root-knot nematode) infected lima bean plant assessed as emergence at 1.12 kg ai/ha applied to soil measured during planting under green house conditions (reference value: 83 +/- 5%); assay type: functional
[31] = system: Meloidogyne incognita; experiment: Nematicidal activity against second juvenile stage of Meloidogyne incognita (root-knot nematode) infected lima bean plant assessed as emergence at 0.56 kg ai/ha applied to soil measured during planting under green house conditions (reference value: 83 +/- 5%); assay type: functional
[32] = system: Meloidogyne incognita; experiment: Nematicidal activity against second juvenile stage of Meloidogyne incognita (root-knot nematode) infected pea plant assessed as root dry weight at 1.68 kg ai/ha applied to soil measured up to 14 days post planting under green house conditions (reference value: 0.25 +/- 0.041 g); assay type: functional

CNC(=O)O/N=C(\SC)C(=O)N(C)C [OXAMYL]
Activity [1]: 0.6 g | Activity [2]: 0.35 g | Activity [3]: 1.79 g | Root_galling_index [4]: 0% | Root_galling_index [5]: 0% | Activity [6]: 1.49 g | Activity [7]: 1.09 g | Activity [8]: 7.1 g | Activity [9]: 6 g | Activity [10]: 4.4 g | Root_galling_index [11]: 0% | Root_galling_index [12]: 0% | Root_galling_index [13]: 0% | Activity [14]: 0.31 g | Activity [15]: 0.17 g | Activity [16]: 1.76 g | Activity [17]: 1.61 g | Activity [18]: 63% | LC90 [19]: 12 µg/mL (≈ 54.7 µM) | LC50 ([19]; Meloidogyne incognita, Juvenile stage, 168 h): 2.8 µg/mL (≈ 12.8 µM) | LC90 [20]: 2.5 µg/mL (≈ 11.4 µM) | LC50 ([20]; Meloidogyne incognita, Juvenile stage, 72 h): 1.7 µg/mL (≈ 7.75 µM) | LC90 [21]: 11.5 µg/mL (≈ 52.4 µM) | LC50 ([21]; Meloidogyne incognita, Juvenile stage, 48 h): 4 µg/mL (≈ 18.2 µM) | Activity [22]: 75% | Activity [23]: 63% | Activity [24]: 1.36 g | Activity [25]: 1.48 g | Activity [26]: 70% | Activity [27]: 80% | Activity [28]: 0.41 g | Activity [29]: 0.31 g | Activity [30]: 100% | Activity [31]: 83% | Activity [32]: 0.29 g

Source: ChEMBL document CHEMBL3045068, “Effect of methomyl and oxamyl soil applications on early control of nematodes and insects” (Pest Manag Sci, 2011)
